Results published in ChEMBL document CHEMBL5137036, “Design and synthesis of highly TRAIL expression HDAC inhibitors based on ONC201 to promote apoptosis of colorectal cancer” (Eur J Med Chem, 2022).
Activity calls are given as the source filed them. The rule behind the calls is not given here.

What was measured:
HCT-116 [1] = assay: Upregulation of DR5 mRNA expression in human HCT-116 cells at 0.25 uM incubated for 12 hrs by RT-PCR analysis; assay type: functional, cell-based
Histone deacetylase 1 = Histone deacetylase 1 (Homo sapiens, UniProt Q13547); assay: Inhibition of human HDAC1 using RHKKAc fluorogenic peptide as substrate preincubated for 10 mins followed by substrate addition by fluorescence based analysis
HCT-116 [2] = assay: Induction of apoptosis in human HCT-116 cells assessed as increase in Bax protein expression incubated for 12 hrs by Western blot analysis; assay type: functional, cell-based; conditions: dose 0.125-0.5 µM, DDE = dose-dependent effect
[3] = target: Histone deacetylase 3/Nuclear receptor corepressor 2 (HDAC3/NCoR2) (Homo sapiens, UniProt O15379); assay: Inhibition of human HDAC3/NcoR2 using RHKKAc fluorogenic peptide as substrate preincubated for 10 mins followed by substrate addition by fluorescence based analysis; assay type: protein-complex assay
Histone deacetylase 11 = target: T1, Histone deacetylase 11 (Homo sapiens, UniProt Q96DB2); assay: Inhibition of human HDAC11 using Boc-Lys(trifluoroacetyl)-AMC as fluorogenic substrate preincubated for 10 mins followed by substrate addition by fluorescence based analysis
T1 sequence (Q96DB2 whole entry): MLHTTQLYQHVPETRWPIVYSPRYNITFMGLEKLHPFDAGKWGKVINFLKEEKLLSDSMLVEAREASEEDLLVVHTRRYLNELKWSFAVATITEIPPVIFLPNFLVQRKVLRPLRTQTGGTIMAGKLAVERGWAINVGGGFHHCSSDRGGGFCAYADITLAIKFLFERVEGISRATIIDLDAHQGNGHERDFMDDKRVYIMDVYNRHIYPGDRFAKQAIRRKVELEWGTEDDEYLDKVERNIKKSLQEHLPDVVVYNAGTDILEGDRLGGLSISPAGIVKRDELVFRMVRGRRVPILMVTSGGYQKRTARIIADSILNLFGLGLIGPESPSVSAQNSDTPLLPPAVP

HCT-116 [4] = assay: Induction of apoptosis in human HCT-116 cells assessed as viable cells at 0.125 uM incubated for 24 hrs by AnnexinV-FITC/PI staining based flow cytometry (reference value: 93.64%); assay type: functional; conditions: read-out: Activity
HCT-116 [5] = assay: Induction of apoptosis in human HCT-116 cells assessed as dead cells at 0.125 uM incubated for 24 hrs by AnnexinV-FITC/PI staining based flow cytometry (reference value: 4.62 %); assay type: functional
HCT-116 [6] = assay: Induction of apoptosis in human HCT-116 cells assessed as late apoptotic cells at 0.25 uM incubated for 24 hrs by AnnexinV-FITC/PI staining based flow cytometry (reference value: 0.82 %); assay type: functional
HCT-116 [7] = assay: Induction of apoptosis in human HCT-116 cells assessed as dead cells at 0.25 uM incubated for 24 hrs by AnnexinV-FITC/PI staining based flow cytometry (reference value: 4.62 %); assay type: functional
HCT-116 [8] = assay: Induction of apoptosis in human HCT-116 cells assessed as viable cells at 0.5 uM incubated for 24 hrs by AnnexinV-FITC/PI staining based flow cytometry (reference value: 93.64%); assay type: functional; conditions: read-out: Activity
HCT-116 [9] = assay: Antitumor activity against human HCT-116 cells xenografted in BALB/c mouse assessed as reduction in tumor growth by measuring T/C ratio at 25 mg/kg, po qd administered for 3 weeks and measured every 3 days by vernier caliper analysis; assay type: functional
[10] = Toxicity in BALB/c mouse xenografted with human HCT-116 cells assessed as morphological changes in spleen at 12.5 to 25 mg/kg, po qd administered for 21 days by H & E staining based microscopic analysis; assay type: organism-based; conditions: in vivo, 504 h, dose 12.5-25 mg/kg, time 21 day
HCT-116 [11] = assay: Effect on TRAIL protein expression in human HCT-116 cells incubated for 12 hrs by Western blot analysis; assay type: functional, cell-based; conditions: dose 0.125-0.5 µM, DDE = dose-dependent effect
HCT-116 [12] = assay: Effect on ac-H3 protein expression in human HCT-116 cells incubated for 12 hrs by Western blot analysis; assay type: functional, cell-based; conditions: dose 0.125-0.5 µM, DDE = dose-dependent effect

Histone deacetylase 1, sequence (Q13547 whole entry): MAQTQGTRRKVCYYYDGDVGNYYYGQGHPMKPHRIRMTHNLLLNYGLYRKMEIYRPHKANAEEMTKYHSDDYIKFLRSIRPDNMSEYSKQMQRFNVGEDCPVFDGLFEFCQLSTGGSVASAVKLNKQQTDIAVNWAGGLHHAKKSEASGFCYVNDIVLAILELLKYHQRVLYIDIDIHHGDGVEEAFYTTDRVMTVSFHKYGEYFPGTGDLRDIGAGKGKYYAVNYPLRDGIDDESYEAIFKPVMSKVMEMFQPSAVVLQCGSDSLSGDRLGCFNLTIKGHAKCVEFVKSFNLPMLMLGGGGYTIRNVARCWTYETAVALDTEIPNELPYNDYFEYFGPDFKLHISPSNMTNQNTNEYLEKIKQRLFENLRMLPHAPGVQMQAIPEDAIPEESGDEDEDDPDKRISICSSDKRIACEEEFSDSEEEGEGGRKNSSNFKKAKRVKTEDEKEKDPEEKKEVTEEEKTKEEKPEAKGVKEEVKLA
Histone deacetylase 3/Nuclear receptor corepressor 2 (HDAC3/NCoR2), sequence (O15379 whole entry): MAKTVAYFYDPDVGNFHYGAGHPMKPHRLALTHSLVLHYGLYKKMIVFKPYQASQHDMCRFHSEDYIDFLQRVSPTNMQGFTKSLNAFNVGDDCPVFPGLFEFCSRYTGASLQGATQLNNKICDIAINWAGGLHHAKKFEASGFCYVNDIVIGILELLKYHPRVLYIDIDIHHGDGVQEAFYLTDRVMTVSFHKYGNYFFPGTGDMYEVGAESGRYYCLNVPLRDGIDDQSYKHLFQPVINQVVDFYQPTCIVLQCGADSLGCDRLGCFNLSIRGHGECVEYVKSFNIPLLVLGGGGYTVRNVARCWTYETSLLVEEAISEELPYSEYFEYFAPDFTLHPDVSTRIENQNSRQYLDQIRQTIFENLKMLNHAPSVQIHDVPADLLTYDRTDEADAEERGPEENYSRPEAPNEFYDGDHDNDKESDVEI
Histone deacetylase 3/Nuclear receptor corepressor 2 (HDAC3/NCoR2), sequence (Q9Y618 whole entry, further chain): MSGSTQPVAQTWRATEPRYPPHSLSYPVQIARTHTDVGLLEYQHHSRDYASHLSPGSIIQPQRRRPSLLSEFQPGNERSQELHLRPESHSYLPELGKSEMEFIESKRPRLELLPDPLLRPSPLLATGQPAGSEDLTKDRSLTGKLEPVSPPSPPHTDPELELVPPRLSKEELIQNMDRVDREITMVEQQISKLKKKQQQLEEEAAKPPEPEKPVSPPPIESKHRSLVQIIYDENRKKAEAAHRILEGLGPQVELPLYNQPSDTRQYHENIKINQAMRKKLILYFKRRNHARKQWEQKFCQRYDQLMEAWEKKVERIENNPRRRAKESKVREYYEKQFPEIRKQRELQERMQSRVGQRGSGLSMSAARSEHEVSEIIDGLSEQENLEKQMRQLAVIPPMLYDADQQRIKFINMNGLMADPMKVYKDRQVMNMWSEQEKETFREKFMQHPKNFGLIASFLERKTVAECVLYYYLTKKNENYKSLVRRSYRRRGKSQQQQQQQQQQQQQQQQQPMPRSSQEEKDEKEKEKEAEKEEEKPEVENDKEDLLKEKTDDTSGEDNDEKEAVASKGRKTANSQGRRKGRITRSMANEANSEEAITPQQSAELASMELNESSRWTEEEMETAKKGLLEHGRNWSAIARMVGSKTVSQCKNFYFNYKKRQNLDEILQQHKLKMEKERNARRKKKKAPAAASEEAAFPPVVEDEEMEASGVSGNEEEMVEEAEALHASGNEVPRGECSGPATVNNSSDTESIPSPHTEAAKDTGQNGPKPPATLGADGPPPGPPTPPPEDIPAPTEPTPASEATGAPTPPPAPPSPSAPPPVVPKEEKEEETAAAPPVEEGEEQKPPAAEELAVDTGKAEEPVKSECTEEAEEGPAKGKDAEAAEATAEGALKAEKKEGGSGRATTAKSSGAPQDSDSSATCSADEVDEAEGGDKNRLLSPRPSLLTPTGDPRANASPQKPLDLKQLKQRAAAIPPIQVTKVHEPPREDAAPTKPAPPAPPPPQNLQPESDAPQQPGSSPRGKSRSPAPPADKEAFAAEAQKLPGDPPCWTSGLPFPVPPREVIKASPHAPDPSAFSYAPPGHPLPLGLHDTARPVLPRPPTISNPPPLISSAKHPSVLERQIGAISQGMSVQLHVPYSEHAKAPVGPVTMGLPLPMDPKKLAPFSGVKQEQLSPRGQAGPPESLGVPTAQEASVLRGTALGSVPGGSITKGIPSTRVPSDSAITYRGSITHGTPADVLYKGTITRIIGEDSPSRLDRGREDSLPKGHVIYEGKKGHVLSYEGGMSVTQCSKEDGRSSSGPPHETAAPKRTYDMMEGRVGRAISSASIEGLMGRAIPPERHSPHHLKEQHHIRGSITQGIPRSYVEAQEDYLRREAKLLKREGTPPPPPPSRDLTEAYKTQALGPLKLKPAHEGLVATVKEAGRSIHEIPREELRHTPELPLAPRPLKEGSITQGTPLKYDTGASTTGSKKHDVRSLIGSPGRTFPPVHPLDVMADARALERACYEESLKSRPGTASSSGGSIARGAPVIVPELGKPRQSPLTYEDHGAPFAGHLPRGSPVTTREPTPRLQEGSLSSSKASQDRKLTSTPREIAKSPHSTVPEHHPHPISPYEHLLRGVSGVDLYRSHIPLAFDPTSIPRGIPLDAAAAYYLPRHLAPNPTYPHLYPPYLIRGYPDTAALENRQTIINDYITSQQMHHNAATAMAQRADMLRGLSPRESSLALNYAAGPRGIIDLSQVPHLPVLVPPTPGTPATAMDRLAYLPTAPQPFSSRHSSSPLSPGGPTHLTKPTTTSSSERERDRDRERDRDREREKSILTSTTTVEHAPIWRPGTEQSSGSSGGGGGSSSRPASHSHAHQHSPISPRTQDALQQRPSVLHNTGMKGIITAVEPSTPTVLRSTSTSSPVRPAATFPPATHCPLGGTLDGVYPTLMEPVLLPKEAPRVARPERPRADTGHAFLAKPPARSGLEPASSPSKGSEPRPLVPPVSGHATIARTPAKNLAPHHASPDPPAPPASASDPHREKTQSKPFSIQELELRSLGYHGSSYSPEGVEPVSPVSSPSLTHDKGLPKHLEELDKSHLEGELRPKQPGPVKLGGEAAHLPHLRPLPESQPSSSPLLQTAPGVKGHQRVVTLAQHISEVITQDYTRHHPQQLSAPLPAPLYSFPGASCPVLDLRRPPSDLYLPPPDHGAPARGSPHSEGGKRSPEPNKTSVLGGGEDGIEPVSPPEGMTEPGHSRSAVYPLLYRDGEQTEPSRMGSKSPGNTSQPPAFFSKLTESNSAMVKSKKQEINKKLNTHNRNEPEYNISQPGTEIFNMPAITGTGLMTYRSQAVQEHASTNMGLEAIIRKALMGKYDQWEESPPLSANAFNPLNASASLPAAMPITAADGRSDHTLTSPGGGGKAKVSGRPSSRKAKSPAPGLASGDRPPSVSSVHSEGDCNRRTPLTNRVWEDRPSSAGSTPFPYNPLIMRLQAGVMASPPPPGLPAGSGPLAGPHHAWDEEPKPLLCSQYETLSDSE

With `COc1ccccc1CN1C(=O)C2=C(CCN(Cc3ccc(C(=O)Nc4ccccc4N)cc3)C2)N2CCN=C12` the Activity (HCT-116 [1]) was “Active”, the IC50 (Histone deacetylase 1) was 0.156 µM and the Activity (HCT-116 [2]) was “Dde”. It also gave an IC50 [3] of 0.589 µM, an IC50 (Histone deacetylase 11) of over 10 µM and a viability at 0.125 µM (HCT-116 [4]) of 91.5%. For the same compound, the Activity (HCT-116 [5]) was 6.33%, the Activity (HCT-116 [6]) was 1.82% and the Activity (HCT-116 [7]) was 4.06%. The viability at 0.5 µM (HCT-116 [8]) was 87.2%, the T/C (HCT-116 [9]) was 0.33 and the Activity [10] was “Non-Toxic”. The Activity (HCT-116 [11]) was “Dde” and the Activity (HCT-116 [12]) was “Dde”.
